“Also recorded” adds a separate entry of the source. Like-named read-outs stand apart in the source and are kept apart here.

These results are taken from patent US9629830B2, “EphA4 inhibitors as neuroprotective agents” (The Hong Kong University of Science and Technology, priority 2013, dated 2017).

The nature of data set [1]: Blood and brain penetration assay after single oral administration. Format: in vivo, mouse. The following applies: for half-life: C57Bl/6, mouse, po, 50 mg/kg. How it is done:
Five microliters of sample was injected and eluted by the following program at the flow rate of 0.6 ml/min: 0-4.0 min, 10˜35% ACN; 4.0-4.1 min, 100% ACN; 7.0-7.1 min, 100-10% ACN, 7.1-10 min, 10% ACN. Detection of Rhy was carried out with the positive ionization mode. The ESI conditions were as follows: declustering potential 120 V, entrance potential 10 V, collision cell exit potential 12 V, collision energies 38 V, curtain gas 50 (arbitrary units), collision gas 10 (arbitrary units), ion spray voltage […], source temperature 500° C., ion source gas 1:45 (arbitrary units), ion source gas 2:60 (arbitrary units).
Male C57Bl/6 mice (16-week-old) were obtained from the Hong Kong University of Science and Technology (HKUST) Animal Care Facility and acclimatized in the laboratory a week before the study. […] The procedures in this study were approved by HKUST Animal Ethics Committee and conducted in accordance with the Code of Practice and Use of Animals for Experimental Purpose.
Plasma was obtained by centrifuging the blood at 3,800×g at 4° C. for 10 min. Mouse brains were collected after a 30-min cardiac perfusion with 0.9% saline. Whole mouse brain with the addition of 80 μL 0.9% saline was subjected to homogenization for 10 s (Precellys Minilys) at 4000 rpm with ceramic beads. […] Samples were centrifuged at 12,000×g at 4° C. for 10 min. The supernatants were transferred to a new tube and the remaining samples were subjected to another extraction. The supernatants obtained from the two extractions were pooled and evaporated to dryness. The dried samples were dissolved in 0.3 mL methanol, vortexed for 30 s followed by ultrasonication for 5 min and centrifuged at 17,900×g for 5 min. The supernatant (80 μL) was transferred into vial for UPLC-MS/MS analysis.

A further data set concerns NMDA receptor. The following applies: subsequent study; cited from earlier work.
Data set [2] relates to Aβ-induced reduction of neurotransmission in hippocampal neurons. Description: mEPSC recording in Aβ-treated cultured hippocampal neurons. Format: cell-based, rat. The protocol: Primary cortical and hippocampal neurons were prepared from embryonic day 18-19 rat embryos as described previously^24. Briefly, cortical neurons (6×10^6 per plate) were plated on 100-mm culture dishes coated with poly-D-lysine (12.5 μg/mL; Sigma). Rat hippocampal neurons were seeded on 18-mm coverslips coated with poly-D-lysine (50 μg/mL) at a density of 0.5×10^5/18-mm coverslip for immunocytochemical analysis, 0.1×10^5/18-mm coverslip for growth cone collapse assay, or 1×10^5 or 1.5×10^5/18-mm coverslip for mEPSC recording. Neurons were fed Neurobasal medium (Invitrogen) supplemented with 2% B27 (Invitrogen). Acute brain slices were prepared from P15-P17 Sprague-Dawley rats. Briefly, the rats were rapidly decapitated, and their brains were immersed in ice-cold artificial cerebrospinal fluid (ACSF). The hippocampus was dissected, and 300-μm-thick slices were prepared using a vibratome (Lieca). The slices were then transferred into an incubating chamber containing circulating ACSF equilibrated with 95% O2+5% CO2 and held at room temperature for at least 2 h for recovery prior to experiments^65.
For miniature EPSC recordings, hippocampal neurons at ˜25-28 DIV were co-treated with or without 500 nM Aβ together with the testing reagents for 24 h. Whole-cell patch-clamp recordings were made at room temperature with external solution containing (in mM) 110 NaCl, 5 KCl, 2 CaCl2, 0.8 MgCl2, 10 HEPES, and 10 D-glucose (pH 7.4) as well as an internal solution containing (in mM) 135 CsCl2, 10 HEPES, 2 MgCl2, 4 NaATP, 0.4 NaGTP, and 0.5 EGTA (pH 7.2)^24,27. Picrotoxin ([…]) was included in the external solution to block GABAergic IPSCs along with 0.5 μM TTX to prevent action potential-evoked EPSCs. For miniature EPSC recordings, cells were held at −70 mV. The pipette resistances for these experiments were typically 3-5 MΩ, while series resistances were 15-20 MΩ. The minis from each cell was recorded for 1 min in each condition. The measurement of mEPSC was according to that described in Mini Analysis Program for measuring AMPA receptor EPSCs (Synaptosoft Inc.). Only recording epochs in which series and input resistances varied <10% were analyzed. Data are presented as the mean±SEM of at least 3 experiments.

The next data set deals with T1, EphA4 (Rattus norvegicus, UniProt D3ZZK3).
T1 construct: endogenous in cells; host or cells: primary rat cortical neurons (A5), primary rat hippocampal neurons (A7)
T1 sequence (D3ZZK3 20-986): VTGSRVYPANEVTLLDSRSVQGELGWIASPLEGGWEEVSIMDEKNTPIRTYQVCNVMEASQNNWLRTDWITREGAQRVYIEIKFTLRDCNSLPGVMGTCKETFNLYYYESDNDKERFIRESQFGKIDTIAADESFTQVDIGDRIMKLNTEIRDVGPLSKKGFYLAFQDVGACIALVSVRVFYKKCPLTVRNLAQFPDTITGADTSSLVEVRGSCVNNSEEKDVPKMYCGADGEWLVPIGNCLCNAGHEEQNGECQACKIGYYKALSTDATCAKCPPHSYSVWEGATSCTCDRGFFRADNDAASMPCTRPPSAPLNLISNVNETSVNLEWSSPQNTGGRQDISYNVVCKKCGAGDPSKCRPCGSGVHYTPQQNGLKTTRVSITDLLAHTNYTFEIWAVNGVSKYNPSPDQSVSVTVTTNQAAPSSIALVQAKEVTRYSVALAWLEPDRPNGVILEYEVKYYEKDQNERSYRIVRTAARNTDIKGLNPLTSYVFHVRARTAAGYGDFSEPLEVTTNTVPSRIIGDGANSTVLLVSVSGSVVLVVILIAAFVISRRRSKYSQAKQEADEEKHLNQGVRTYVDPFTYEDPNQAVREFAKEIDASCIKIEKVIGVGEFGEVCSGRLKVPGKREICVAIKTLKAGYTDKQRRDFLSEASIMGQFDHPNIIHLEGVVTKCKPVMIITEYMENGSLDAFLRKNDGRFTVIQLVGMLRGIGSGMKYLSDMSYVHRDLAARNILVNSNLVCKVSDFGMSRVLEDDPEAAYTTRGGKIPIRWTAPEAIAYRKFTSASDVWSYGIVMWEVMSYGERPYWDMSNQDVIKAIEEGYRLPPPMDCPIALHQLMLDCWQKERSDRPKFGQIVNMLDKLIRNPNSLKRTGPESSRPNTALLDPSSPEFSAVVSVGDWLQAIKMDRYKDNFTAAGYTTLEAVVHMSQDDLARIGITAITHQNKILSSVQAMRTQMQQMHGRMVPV
In words: Ephrin-A1-induced EphA4 cluster assay in cultured hippocampal neurons. Format: cell-based. To be noted: cultured hippocampal neurons 3 DIV, different concentrations. How it is done: For EphA4 clustering, neurons were stained with anti-EphA4 and anti-Tau-1 antibodies. For the growth cone collapse assay, neurons were stained with Alexa Fluor 555-conjugated phalloidin (Molecular Probes) for filamentous actin and anti-Tau-1 antibody for axons. Collapsed growth cones were scored in a double-blinded manner. The experiments were repeated at least 3 times, and >50 neurons were analyzed for each experiment. Data are presented as mean±SEM.
Rat hippocampal neurons were seeded on 48-well plates coated with poly-D-lysine (50 μg/mL) at 6000 cells per well. Neurons were incubated with Neurobasal medium (Invitrogen) supplemented with 2% B27 (Invitrogen). […] Neurons were then immunostained with anti-EphA4 and anti-Tau-1 antibodies. The cellular imaging and quantification of EphA4 clusters was performed using IN Cell Analyzer 6000 high content assay system (GE Healthcare). EphA4 clusters were quantified by calculating the proportion of total area of EphA4 clusters on axons against Tau positive area. Statistical analysis was performed with one-way ANOVA followed by Newman-Keuls Multiple Comparison Test (Prism 5 GraphPad Software).

Where [3] appears, read: mouse, single oral 50 mg/kg, rounded.

On to `CC[C@H]1CN2CC[C@]3(C(=O)Nc4ccccc43)[C@@H]2C[C@@H]1/C(=C\OC)C(=O)OC` [Rhy, methyl (7β,16E,20α)-16-(methoxymethylene)-2-oxocorynoxan-17-oate], for which the “detection in plasma and brain” value in data set [1] (10 min after single oral 50 mg/kg) is on record as “readily detected”. Further, in data set [1] (after 3 h of administration, in both plasma and brain), the “level of Rhy as percentage of Cmax” value is 10%. Moreover, the half-life was 1.79 ± 0.455 h in data set [1] (male, brain, mouse, single oral 50 mg/kg, perfused brain, read-out: t1/2 in brain (converted)); approximately 2 h in data set [1] (male, brain, mouse, single oral 50 mg/kg, rounded, read-out: t1/2 in brain (converted)); 1.35 ± 0.201 h in data set [1] (male, plasma, mouse, single oral 50 mg/kg, read-out: t1/2 in plasma). Moreover, the Cmax in data set [1] (male, C57Bl/6, plasma, mouse, single oral 50 mg/kg) stood at 583 ± 32.9 ng/mL. Also, the Tmax in data set [1] (male, C57Bl/6, plasma, mouse, single oral 50 mg/kg, read-out: Tmax in plasma (converted)) is 0.514 h; in data set [1] (male, C57Bl/6, mouse, single oral 50 mg/kg, perfused brain, read-out: Tmax in brain (converted)) it was 0.917 h. The “blood-brain barrier passage” value in data set [1] (mouse, oral administration) is recorded as “can pass through the blood-brain barrier”. In data set [1] (mouse, single oral 50 mg/kg, perfused brain), this compound displayed a Cmax in brain of 442.73±27.38 ng/brain. In data set [1] (setting [3]), the “time at which brain level peaked” value is approximately 1 h. Further, in data set [1] (setting [3]), the “time at which plasma concentration peaked” value is approximately 0.5 h. The “time at which plasma concentration was reduced by 50%” value in data set [1] (setting [3]) is approximately 1.5 h. Further, the “binding to NMDA receptor” value in the data set with NMDA receptor is recorded as “neither binds to NMDA receptor”. Moreover, the mEPSC inter-event interval worked out at 420.6 ± 9.6 ms in data set [2] (Rhy 10 μM + Aβ, Aβ alone 897.4±43.4 ms) and 512.2 ± 13.6 ms in data set [2] (Rhy 10 μM alone, control 312.9±7.8 ms). Further, on EphA4, the “ephrin-A1-induced EphA4 clustering” value is listed as “reduced the ephrin-A1-induced EphA4 clustering; also recorded: abolished ephrin-A1-induced EphA4 clustering”.
